{"source": "patent US11559575B2", "about": "“Multi-epitopic peptide compounds and vaccines against leishmaniasis” (INSTITUT DE RECHERCHE POUR LE DEVELOPPEMENT, priority 2018, dated 2023)", "key": {"[1]": {"tested_on": "CD4+ T cells of a naive individual (MPL10)", "test": "IFN-γ ELISPOT with CD4+ T cells and autologous dendritic cells of a naive individual (long protocol, three stimulations)", "assay_type": "cell-based, human", "method": "The immunogenicity was evaluated, with combinations of peptides (combination corresponding to the “Pool H”) at 1 μM for each peptide, from samplings of blood of naive individuals and according to a long protocol with at least three successive stimulations. An IFN-γ ELISPOT test for measuring the frequency of the pre-existing naive T cells and the amplitude of the specific naive T repertoire for each peptide, was performed with the CD4+ T cells and the autologous dendritic cells of a naive individual in the presence or absence of the mixture of peptides, or in the presence of each peptide individually. […] The “Pool H” combination was used either with peptides not modified at the amino-terminal end and with amidation of the carboxy-terminal end, or with peptides chemically modified by a palmitoyl tail at the amino-terminal end and with amidation of the carboxy-terminal end.\nThe evaluation of the immunogenicity properties of peptide compounds according to the invention in naive individuals, persons who have never been in contact with the Leishmania parasite, is an important factor in predicting the efficacy of a peptide vaccine (Kwok WW et al, 2012, Frequency of epitope-specific naive CD4(+) T cells correlates with immunodominance in the human memory repertoire; Castelli F A et al, 2007, Differential capacity of T cell priming in naive donors of promiscuous CD4+ T cell epitopes of HCV NS3 and Core proteins). Immunogenicity is evaluated in vitro by measuring the frequency of the pre-existing naive T cells and the amplitude of the naive T repertoire specific for each compound. The evaluation is carried out using blood samples from naive individuals and in accordance with a long protocol (Castelli F A, et al. 2007 as aforementioned) putting purified T lymphocytes in contact with autologous dendritic cells previously incubated with the peptides of the invention. The combination of peptides used is composed of: SEQ ID NO: 23, SEQ ID NO: 66, SEQ ID NO: 73, SEQ ID NO: 77, SEQ ID NO: 97, SEQ ID NO: 138, SEQ ID NO: 157, SEQ ID NO: 185, SEQ ID NO: B11, SEQ ID NO: B12 and SEQ ID NO: B13. The compounds were synthesized chemically without amino-terminal modification and with carboxy-terminal (peptide-NH2) amidation (NH2). After three successive stimulations at intervals of seven days of the CD4+ T cells of a naive individual (MPL10; Établissement français du sang de Toulouse), an IFN-γ ELISPOT was carried out with the cells in the presence or absence of the mixture of peptides, or in the presence of each compound individually. […] Each positive line responds to at least one of the peptides of the present invention. The MPL10-3 line responds to the peptides SEQ ID NO: 73 and SEQ ID NO: 157. The MPL10-4 line responds to the peptides SEQ ID NO: 23, SEQ ID NO: 73, SEQ ID NO: 77, SEQ ID NO: 97, SEQ ID NO: 138 and SEQ ID NO: 157. The MPL10-7 line responds to the peptides SEQ ID NO: 77, SEQ ID NO: 97 and SEQ ID NO: 157. The MPL10-8 line responds to the peptides SEQ ID NO: 66, SEQ ID NO: 73, SEQ ID NO: 97, SEQ ID NO: 138 and SEQ ID NO: 157. The MPL10-10 line responds to the peptides SEQ ID NO: 66, SEQ ID NO: 73, SEQ ID NO: 77, SEQ ID NO: 97, SEQ ID NO: 138, SEQ ID NO: 157 and SEQ ID NO: 185. And the MPL10-12 line responds to the peptides SEQ ID NO: 66, SEQ ID NO: 157 and SEQ ID NO: 185.\nThe evaluation of the immunogenicity properties of peptide compounds of the invention in the same naive individual (MPL10) but with chemically synthesized compounds with the addition of a palmitoylated tail at the amino-terminal end and with an NH2 group at the carboxy-terminal end (PAL-peptide-NH2) was also performed. The same combination of peptides as before was used. After three stimulations with the mixture of PAL-peptide-NH2 peptides, an IFN-g ELISPOT was carried out with the cells in the presence or absence of the mixture of peptides, or in the presence of each peptide individually. […]"}, "[2]": {"tested_on": "HLA alleles of class I", "test": "Affinity of epitopes for HLA alleles of class I", "assay_type": "binding, human", "details": "for Concatenation affinity for HLA allele of class I: LmLRAB (IA, IB, IC) epitopes, Table 2; for Affinity for the HLA alleles of class I: H2B-1 epitopes, Table 1", "description": "The multiepitopic peptide compounds (24 to 40-mer), having a high affinity with a maximized number of HLA molecules of class I and of class II, such as the affinities for the alleles HLA of class I and HLA of class II of the epitopes in the peptides of the sequences SEQ ID NO: 22, 23, 65, 66, 69, 73, 77, 96, 97, 137, 138, and 157, 185, have a high immunoprevalent potential corresponding to an optimal vaccine coverage, in particular for the populations concerned. The degree of coverage of the peptide compounds of the invention show a very high added value compared with the peptides of the prior art."}, "[3]": {"tested_on": "HLA supertypes of class I", "test": "Affinity of epitopes for HLA supertypes of class I", "assay_type": "binding, human", "details": "for Affinity for HLA supertypes of class I: LmLRAB (IA, IB, IC) epitopes, Table 2; for Affinity for the HLA supertypes of class I: H2B-1 epitopes, Table 1", "description": "HLA molecules are highly polymorphous. This is because there exist more than 2500 HLA proteins of class I (HLA-I) and more than 1000 HLA proteins of class II (HLA-II). However, some of these HLA molecules, close in sequence and in spatial conformation, may have epitopes common to the T cells. The grouping of several thousands of HLA molecules is at the present time described in a little more than 20 or so categories, referred to as “HLA supertypes” having epitopes that are very well preserved for each supertype."}, "[4]": {"tested_on": "HLA alleles of class II", "test": "Affinity of epitopes for HLA alleles of class II", "assay_type": "binding, human", "details": "Table 3"}, "[5]": {"details": "MPL10-PAL-3 line, PAL-peptide-NH2"}, "[6]": {"details": "MPL10-PAL-2 line, PAL-peptide-NH2"}}, "note": "Entries after “also recorded” stand apart in the source; their conditions may differ."}
{"substance": "KGRSENAIVTSRKVQEEVFDLFTDVHYSEVSAKTK (Leishmania major) [SEQ ID NO: 138]", "values": [{"measurement": "IFN-γ ELISPOT response of specific line to individual peptide", "setting": "[1]; MPL10-4 line, peptide-NH2", "result": "responds"}, {"measurement": "IFN-γ ELISPOT response of specific line to individual peptide", "setting": "[1]; MPL10-8 line, peptide-NH2", "result": "responds"}, {"measurement": "IFN-γ ELISPOT response of specific line to individual peptide", "setting": "[1]; MPL10-10 line, peptide-NH2", "result": "responds"}, {"measurement": "IFN-γ ELISPOT response of specific line to individual peptide", "setting": "[1]; [5]", "result": "responds"}]}
{"substance": "KTKQHLREM (Leishmania major) [SEQ ID NO: 68]", "values": [{"measurement": "Concatenation affinity for HLA allele of class I", "setting": "[2]", "result": "HLA-A*30:01,; also recorded: HLA-A*2602"}, {"measurement": "Affinity for HLA supertypes of class I", "setting": "[3]", "result": "HLA-A*01/HLA-A*03,"}]}
{"substance": "LTDEKTSLV (listed as Leishmania infantum) [SEQ ID NO: 148]", "values": [{"measurement": "Affinity HLA alleles of class I", "setting": "[2]; PSA KC-2.6 core, Table 3", "result": "HLA-A*02:01,; also recorded: HLA-A*02:03,; also recorded: HLA-A*02:06,; also recorded: HLA-A*68:02"}, {"measurement": "Concatenation affinity for HLA alleles of class II", "setting": "[4]; PSA KC-2.6 core", "result": "HLA-DRB1*04:01"}]}
{"substance": "MERICTEAA (Leishmania major) [SEQ ID NO: 6]", "values": [{"measurement": "Affinity for the HLA alleles of class I", "setting": "[2]", "result": "HLA-B*40:02,; also recorded: HLA-B*45"}, {"measurement": "Affinity for the HLA supertypes of class I", "setting": "[3]", "result": "HLA-B*44"}]}
{"substance": "MMERICTEA (Leishmania major) [SEQ ID NO: 5]", "values": [{"measurement": "Affinity for the HLA alleles of class I", "setting": "[2]", "result": "HLA-A*02:03,; also recorded: HLA-A*02:01"}, {"measurement": "Affinity for the HLA supertypes of class I", "setting": "[3]", "result": "HLA-A*02"}]}
{"substance": "MMERICTEAA (Leishmania major) [SEQ ID NO: 7]", "values": [{"measurement": "Affinity for the HLA alleles of class I", "setting": "[2]", "result": "HLA-A*02:03"}, {"measurement": "Affinity for the HLA supertypes of class I", "setting": "[3]", "result": "HLA-A*02"}]}
{"substance": "MPHVDQSSI (Leishmania major) [SEQ ID NO: 74]", "values": [{"measurement": "Concatenation affinity for HLA allele of class I", "setting": "[2]", "result": "HLA-B*07:02,; also recorded: HLA-B*35:01,; also recorded: HLA-B*51:01,; also recorded: HLA-B*53:01,; also recorded: HLA-B*08:01"}, {"measurement": "Affinity for HLA supertypes of class I", "setting": "[3]", "result": "HLA-B*07,; also recorded: HLA-B*08"}]}
{"substance": "MSHRTMKIK (Leishmania major) [SEQ ID NO: 8]", "values": [{"measurement": "Affinity for the HLA alleles of class I", "setting": "[2]", "result": "HLA-A*30:01,; also recorded: HLA-A*03:01,; also recorded: HLA-A*11:01"}, {"measurement": "Affinity for the HLA supertypes of class I", "setting": "[3]", "result": "HLA-A*01/HLA-A*03,"}]}
{"substance": "MSMSHRTMKSMSHRTMKIKAINAQMSMMERICTEAA (Leishmania major) [SEQ ID NO: 22]", "values": [{"measurement": "IFN-γ ELISPOT response of specific line to individual peptide", "setting": "[1]; [6]", "result": "responds"}]}
{"substance": "SDYSHSMIR (listed as Leishmania infantum) [SEQ ID NO: 177]", "values": [{"measurement": "Affinity for HLA alleles of class I", "setting": "[2]; PSA KC-2.7 core, Table 3", "result": "HLA-A*31:01,; also recorded: HLA-A*68:01"}, {"measurement": "Concatenation affinity for HLA alleles of class II", "setting": "[4]; PSA KC-2.7 core", "result": "HLA-DRB1*07:01,; also recorded: HLA-DRB5*01:01"}]}
{"substance": "SEQ ID NO: 66: multiepitopic peptide compound of overlapping H2B epitopes of sequences SEQ ID NO: 24 to 64; sequence not printed (KGRKPKRSWNVYVGRSLKAINAQMSMSHRTMKIV; Leishmania major)", "values": [{"measurement": "IFN-γ ELISPOT response of specific line to individual peptide", "setting": "[1]; MPL10-8 line, peptide-NH2", "result": "responds"}, {"measurement": "IFN-γ ELISPOT response of specific line to individual peptide", "setting": "[1]; MPL10-10 line, peptide-NH2", "result": "responds"}, {"measurement": "IFN-γ ELISPOT response of specific line to individual peptide", "setting": "[1]; MPL10-12 line, peptide-NH2", "result": "responds"}, {"measurement": "IFN-γ ELISPOT response of specific line to individual peptide", "setting": "[1]; [6]", "result": "responds"}, {"measurement": "IFN-γ ELISPOT response of specific line to individual peptide", "setting": "[1]; [5]", "result": "responds"}]}
